Measurements from US12729377B2, “RNAi agents and compositions for inhibiting expression of angiopoietin-like 3 (ANGPTL3), and methods of use” (Arrowhead Pharmaceuticals, Inc., priority 2017, dated 2026).
In the oligonucleotide strings, read from the 5' end, every base follows the letter of its sugar. An asterisk marks phosphorothioate; unmarked linkages are phosphodiester. Other units and linkages are bracketed, terminal groups are in braces. A string of capitals states the bases alone. {NAG37} = tridentate N-acetyl-galactosamine targeting ligand, structure (NAG37)s; [invAb] = inverted abasic unit; m = 2'-O-methyl; f = 2'-fluoro

Experiments:
ANGPTL3 gene [1] = test: Example 9: serum total cholesterol in cynomolgus monkeys; format: in vivo, cynomolgus macaque (Macaca fascicularis); settings: 2.0 mg/kg single SC injection day 1, cynos, n=3
Protocol: Additional ANGPTL3 RNAi agents were evaluated in cynomolgus monkeys. On day 1, cynomolgus macaque (Macaca fascicularis) primates (also referred to herein as “cynos”) were administered a single subcutaneous injection of 0.3 mL/kg (approximately 2-3 mL volume, depending on animal mass) containing 2.0 mg/kg of an ANGPTL3 RNAi agent, which included either AD05488, AD05743, AD05775, or AD05841, each formulated in saline. […] ANGPTL3 RNAi agents AD05488, AD05743, and AD05775 included nucleotide sequences designed to target position 304 of the ANGPTL3 gene. ANGPTL3 RNAi agent AD05841 included nucleotide sequences designed to target position 1035 of the ANGPTL3 gene.
Three (3) cynos in each group were tested (n=3). Blood samples were drawn and serum samples were analyzed on days −14 (predose), −7 (predose), 1 (pre-dose), 8, 15, 22, 29, and 35. Cynos were fasted overnight prior to each collection. ANGPTL3 protein levels in serum were measured by ELISA assay (R&D Systems), according to the manufacturer's recommendations. Triglycerides, total cholesterol, high-density lipoprotein (HDL), and low-density lipoprotein (LDL) in serum were measured on a Cobas® Integra 400 (Roche Diagnostics), according to the manufacturer's recommendations.
The ANGPTL3 protein levels, triglyceride levels, total cholesterol levels, HDL levels, and LDL levels for each animal were normalized. For normalization, the level of ANGPTL3 protein, triglyceride, HDL, and total cholesterol, respectively, for each animal at a time point, was divided by the average pre-treatment level of expression in that animal (in this case at days −14, −7, and 1) to determine the ratio of expression “normalized to pre-treatment.”

ANGPTL3 gene [2] = test: Example 12: serum total cholesterol in LDLR knockout mice; format: in vivo, LDLR KO mice
Excerpt: (§1) To evaluate the effect of RNAi agent administration in a disease model, mice having a genetic mutation for the LDL receptor (referred to herein as LDLR KO mice) were commercially obtained (The Jackson Laboratory). The LDLR KO mice are homozygous for the Ldlr^tm1Her mutation, and have elevated serum cholesterol levels, particularly when placed on a high fat diet. For three weeks prior to the onset of the study, thirty-nine (39) LDLR KO mice were placed on a high fat diet (Teklad Custom Diets TD.88137). An additional eight (8) LDLR KO mice were placed on a normal chow diet over the same three-week period. Pre-dose serum samples were taken on day −15 and day −1 after a four hour fast. At day 1, each mouse was given a single subcutaneous administration of 200 μl/30 g animal body weight containing the respective mg/kg dose of an ANGPTL3 RNAi agent in D5W (dextrose in 5% water), control (D5W) with no RNAi agent, or a control RNAi agent that included a nucleotide sequence designed to target the Hepatitis B Virus (HBV) genome. A second injection of the same formulation was administered to the animals on day 29. The dosing regimen for the study is recited in the following Table 60:
(§2) Each mouse remained on its respective diet through the duration of study. The RNAi agent tested (AD05488) included a modified sequence and an N-acetyl-galactosamine-containing targeting ligand conjugated to the 5′ terminal end of the sense strand. (See Tables 3, […] modified sequences and targeting ligand structures). The injections were performed between the skin and muscle (i.e. subcutaneous injections) into the loose skin over the neck and shoulder area. Serum was collected on days 8, 15, 22, 29 (pre-second dose), 36, 43, 50, and 57. LDLR KO mice were fasted for four hours prior to each collection. On day 15, four (4) LDLR KO mice from Groups 1, 2, and 3 (i.e., the groups being administered the high fat “Western” diet) were sacrificed after serum collection, and on day 29, an additional four (4) LDLR KO mice from Groups 1, 2, and 3 were sacrificed after serum collection, for the purpose of performing mRNA assessments.
(§3) ANGPTL3 protein levels in serum were measured by ELISA assay (R&D Systems), according to the manufacturer's recommendations. Triglycerides, total cholesterol, high-density lipoprotein (HDL), and low-density lipoprotein (LDL) in serum were measured on a Cobas® Integra 400 (Roche Diagnostics), according to the manufacturer's recommendations.
(§4) The ANGPTL3 protein levels, triglyceride levels, total cholesterol levels, HDL levels, and LDL levels for each animal were normalized. For normalization, respective levels of ANGPTL3 protein, TG, total cholesterol, HDL, or LDL for each animal at a time point was divided by the average pre-treatment level of expression in that animal (in this case the average of day −15 and day −1) to determine the ratio of expression “normalized to pre-treatment.”
(§5) Expression at a specific time point was then normalized to the D5W control group that was administered the same diet (i.e., either the high fat “Western” diet or the normal chow-fed diet) by dividing the “normalized to pre-treatment” ratio for an individual animal by the mean “normalized to pretreatment” ratio of all mice in the D5W control group on the respective same diet, resulting in expression for each time point normalized to that in the control group.

ANGPTL3 gene [3] = test: Example 12: serum LDL in LDLR knockout mice; format: in vivo, LDLR KO mice; settings: 3.0 mg/kg sc day 1
Excerpt: as §1, §2, §3, §4, §5

Which results are given for “AD05488: RNAi agent duplex: antisense AM07235-AS, sense AM07234-SS (antisense mU*fA*mC*fUmGfAmUfCmAfAmAfUmAfUmGfUmUfGmAfG*mC; sense {NAG37}*[invAb]*mGmCmUmCmAmAmCmAfUfAfUmUmUmGmAmUmCmAmGmUmA*[invAb])”?
Average Total Cholesterol Normalized to Pre-Treatment (ANGPTL3 gene [1]; Day 8): 0.823; Average Total Cholesterol Normalized to Pre-Treatment (ANGPTL3 gene [1]; Day 15): 0.744; Average Total Cholesterol Normalized to Pre-Treatment (ANGPTL3 gene [1]; Day 22): 0.709; Average Total Cholesterol Normalized to Pre-Treatment (ANGPTL3 gene [1]; Day 29): 0.687; Average Total Cholesterol Normalized to Pre-Treatment (ANGPTL3 gene [1]; Day 35): 0.659; reductions in total cholesterol (ANGPTL3 gene [2]; 3.0 mg/kg on days 1 and 29 (Groups 2 and 5), LDLR KO mice): significant reductions; Avg Total Chol Normalized to Pre-Treatment and Control (Diet Matched) (ANGPTL3 gene [2]; 3.0 mg/kg sc day 1, High Fat Diet, Day 8): 0.524; Avg Total Chol Normalized to Pre-Treatment and Control (Diet Matched) (ANGPTL3 gene [2]; 3.0 mg/kg sc day 1, High Fat Diet, Day 15): 0.438; Avg Total Chol Normalized to Pre-Treatment and Control (Diet Matched) (ANGPTL3 gene [2]; 3.0 mg/kg sc day 1, High Fat Diet, Day 22): 0.410; Avg Total Chol Normalized to Pre-Treatment and Control (Diet Matched) (ANGPTL3 gene [2]; 3.0 mg/kg sc day 1, High Fat Diet, Day 29 (pre-second dose)): 0.410; Avg Total Chol Normalized to Pre-Treatment and Control (Diet Matched) (ANGPTL3 gene [2]; 3.0 mg/kg sc day 1, Normal Diet, Day 8): 0.645; Avg Total Chol Normalized to Pre-Treatment and Control (Diet Matched) (ANGPTL3 gene [2]; 3.0 mg/kg sc day 1, Normal Diet, Day 15): 0.683; Avg Total Chol Normalized to Pre-Treatment and Control (Diet Matched) (ANGPTL3 gene [2]; 3.0 mg/kg sc day 1, Normal Diet, Day 22): 0.691; Avg Total Chol Normalized to Pre-Treatment and Control (Diet Matched) (ANGPTL3 gene [2]; 3.0 mg/kg sc day 1, Normal Diet, Day 29 (pre-second dose)): 0.636; Avg Total Chol Normalized to Pre-Treatment and Control (Diet Matched) (ANGPTL3 gene [2]; 3.0 mg/kg sc days 1 and 29, High Fat Diet, Day 36): 0.438; Avg Total Chol Normalized to Pre-Treatment and Control (Diet Matched) (ANGPTL3 gene [2]; 3.0 mg/kg sc days 1 and 29, High Fat Diet, Day 43): 0.363; Avg Total Chol Normalized to Pre-Treatment and Control (Diet Matched) (ANGPTL3 gene [2]; 3.0 mg/kg sc days 1 and 29, High Fat Diet, Day 50): 0.374; Avg Total Chol Normalized to Pre-Treatment and Control (Diet Matched) (ANGPTL3 gene [2]; 3.0 mg/kg sc days 1 and 29, High Fat Diet, Day 57): 0.341; Avg Total Chol Normalized to Pre-Treatment and Control (Diet Matched) (ANGPTL3 gene [2]; 3.0 mg/kg sc days 1 and 29, Normal Diet, Day 36): 0.758; Avg Total Chol Normalized to Pre-Treatment and Control (Diet Matched) (ANGPTL3 gene [2]; 3.0 mg/kg sc days 1 and 29, Normal Diet, Day 43): 0.657; Avg Total Chol Normalized to Pre-Treatment and Control (Diet Matched) (ANGPTL3 gene [2]; 3.0 mg/kg sc days 1 and 29, Normal Diet, Day 50): 0.824; Avg Total Chol Normalized to Pre-Treatment and Control (Diet Matched) (ANGPTL3 gene [2]; 3.0 mg/kg sc days 1 and 29, Normal Diet, Day 57): 0.684; Avg LDL Normalized to Pre-Treatment and Control (Diet Matched) (ANGPTL3 gene [3]; High Fat Diet, Day 8): 0.547; Avg LDL Normalized to Pre-Treatment and Control (Diet Matched) (ANGPTL3 gene [3]; High Fat Diet, Day 15): 0.476; Avg LDL Normalized to Pre-Treatment and Control (Diet Matched) (ANGPTL3 gene [3]; High Fat Diet, Day 22): 0.429; Avg LDL Normalized to Pre-Treatment and Control (Diet Matched) (ANGPTL3 gene [3]; High Fat Diet, Day 29 (pre-second dose)): 0.419; Avg LDL Normalized to Pre-Treatment and Control (Diet Matched) (ANGPTL3 gene [3]; Normal Diet, Day 8): 0.558; Avg LDL Normalized to Pre-Treatment and Control (Diet Matched) (ANGPTL3 gene [3]; Normal Diet, Day 15): 0.606; Avg LDL Normalized to Pre-Treatment and Control (Diet Matched) (ANGPTL3 gene [3]; Normal Diet, Day 22): 0.662; Avg LDL Normalized to Pre-Treatment and Control (Diet Matched) (ANGPTL3 gene [3]; Normal Diet, Day 29 (pre-second dose)): 0.563
